Reference: publication PMC6611227 (Frontiers in Microbiology, 2019)
Like-named read-outs stand apart in the source and are kept apart here.

B1: StDHODH (dihydroorotate dehydrogenase) (Solanum tuberosum; I273V/I299V/P120T/P359Q) (protein)
chain: ASTVDEATFCGWLFSATKLVNPFFAFLDPEVAHRLAVSAAARGWVPREKRTDLPILGLDVWGRRFSNPVGLAAGFDKNAEAVEGLLGLGFGFVEVGSVTPIPQEGNPKPRIFRLPNEGALINRCGFNSEGIVAVAKRLGAQHGKRKLETSSTSSPAGDEVKHGGKAGPGILGVNLGKNKTSEDAAADYVQGVHTLSQYADYLVVNISSPNTPGLRQLQGRKQLKDLVKKVQAARDEMQWGEEGPPPLLVKIAPDLSKQDLEDIAAVALALRVDGLIISNTTIQRPDSVSQNPVAQETGGLSGKPLFNMSTNILKEMYLLTKGRIPLIGCGGISSGEDAYKKIRAGATLVQLYTAFGYGGPALIPNIKAELAHCLEKDGYKSVHEAVGADCR

Assays:
[1] = target: T1, PiDHODH (dihydroorotate dehydrogenase) (Phytophthora infestans, UniProt D0MUE3); test: biochemical; details: read-out: Activity % PiDHODH
T1 construct: gene PITG_01913

[2] = system: O=C1C[C@@H](C(=O)O)NC(=O)N1; test: purified protein
[3] = target: T1, PiDHODH (dihydroorotate dehydrogenase); test: biochemical
purified protein = substrate: O=C1C[C@@H](C(=O)O)NC(=O)N1; test: purified protein; details: FMN orotate/dihydroorotate site in the α/β-barrel domain

T1 sequence (D0MUE3 55-424 limits assumed): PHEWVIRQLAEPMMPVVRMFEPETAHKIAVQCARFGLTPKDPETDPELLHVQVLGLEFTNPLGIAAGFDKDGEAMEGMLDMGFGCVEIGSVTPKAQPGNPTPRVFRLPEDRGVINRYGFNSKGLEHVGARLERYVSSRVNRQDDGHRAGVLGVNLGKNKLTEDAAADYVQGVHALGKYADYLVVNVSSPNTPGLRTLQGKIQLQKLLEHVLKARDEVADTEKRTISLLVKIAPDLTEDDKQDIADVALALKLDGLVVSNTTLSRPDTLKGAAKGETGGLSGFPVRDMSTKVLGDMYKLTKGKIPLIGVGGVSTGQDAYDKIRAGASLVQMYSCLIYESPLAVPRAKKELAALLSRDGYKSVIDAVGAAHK

Row | Molecule | activity at 500 µM [1] | other results
1 | CC(O)=C(C#N)C(=O)Nc1ccc(-c2ccccc2)cc1Cl [compound 28, N-(3-chlorobiphenyl-4-yl)-2-cyano-3-hydroxybut-2-enamide] | 1 ± 0.7% | –
2 | O=C1C(O)=C(CC=C(Cl)Cl)C(=O)c2ccccc21 [dichloroallyl lawsone] | 30 ± 2% | –
3 | COc1c(-c2ccccc2)ccc(NC(=O)C(C#N)=C(C)O)c1Cl [compound 19, N-(3-chloro-2-methoxybiphenyl-4-yl)-2-cyano-3-hydroxybut-2-enamide] | 2 ± 0.5% | –
4 | PiDHODH (dihydroorotate dehydrogenase) (Phytophthora infestans T30-4) | – | Km [2]: 57 ± 3 µM
5 | Cc1cc(Nc2cc(F)c(C(F)(F)F)c(F)c2)n2ncnc2n1 [DSM190, N-(3,5-difluoro-4-(trifluoromethyl)phenyl)-5-methyl-[1,2,4]triazolo[1,5-a]pyrimidin-7-amine] | 36 ± 10% | –
6 | COc1cc(-c2ccc(Nc3ccccc3C(=O)O)c(OC)c2)ccc1Nc1ccccc1C(=O)O [Redoxal] | 31 ± 8% | –
7 | C/C(O)=C(\C#N)C(=O)Nc1ccc(C(F)(F)F)cc1 [A77 1726] | – | IC50 [3]: 79 ± 8 µM
8 | O=C(O)C1=C(C(=O)Nc2ccc(-c3ccccc3)cc2)CCC1 [compound 1, 2-(4-biphenylylcarbamoyl)-1-cyclopentene-1-carboxylic acid] | 23 ± 4% | –
9 | B1 | – | Km (purified protein): 20 ± 1 µM
